Like-named read-outs stand apart in the source and are kept apart here.
Target: T1, human TRPV4 (hTRPV4/CHO cells) (Homo sapiens, UniProt Q9HBA0)
T1 construct: expressed in transfected cells; host or cells: CHO-K1
Test: Test Example 1: TRPV4 inhibitory activity (IC50 value), 4α-PDD stimulation, Fluo4 calcium fluorescence (FLIPR TETRA)
Assay type: cell-based

[1] = Test Example 1, 4α-PDD stimulation, read-out: Test 1 IC50

T1 sequence (Q9HBA0 whole entry): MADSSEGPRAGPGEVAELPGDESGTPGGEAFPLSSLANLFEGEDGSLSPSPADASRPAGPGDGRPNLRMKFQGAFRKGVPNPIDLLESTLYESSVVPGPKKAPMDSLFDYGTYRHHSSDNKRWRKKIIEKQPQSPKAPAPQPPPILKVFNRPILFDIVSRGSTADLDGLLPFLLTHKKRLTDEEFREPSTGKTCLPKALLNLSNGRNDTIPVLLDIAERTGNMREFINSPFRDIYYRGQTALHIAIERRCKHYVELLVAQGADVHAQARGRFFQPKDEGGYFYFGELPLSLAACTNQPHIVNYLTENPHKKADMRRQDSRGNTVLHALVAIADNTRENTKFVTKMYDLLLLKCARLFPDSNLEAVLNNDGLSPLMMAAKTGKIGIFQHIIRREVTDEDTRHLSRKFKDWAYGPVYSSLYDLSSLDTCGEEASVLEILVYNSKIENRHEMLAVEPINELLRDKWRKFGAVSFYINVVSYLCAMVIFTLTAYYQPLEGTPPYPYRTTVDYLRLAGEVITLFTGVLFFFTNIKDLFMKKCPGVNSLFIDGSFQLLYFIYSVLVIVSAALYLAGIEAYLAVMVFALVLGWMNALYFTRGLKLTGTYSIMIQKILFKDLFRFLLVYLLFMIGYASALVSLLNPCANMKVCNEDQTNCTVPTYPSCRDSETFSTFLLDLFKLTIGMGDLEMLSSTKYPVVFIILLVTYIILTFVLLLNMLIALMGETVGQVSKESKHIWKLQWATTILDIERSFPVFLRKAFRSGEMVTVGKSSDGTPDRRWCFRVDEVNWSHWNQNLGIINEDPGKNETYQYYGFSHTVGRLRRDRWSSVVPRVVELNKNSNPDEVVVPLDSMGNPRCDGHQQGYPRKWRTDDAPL

Row | IC50 [1] | IC50 (1 μmol/L 4α-PDD, Fluo4-AM, read-out: TRPV4 inhibitory activity (IC50 value)) | Structure (SMILES)
1 | 100 to 1000 nM | – | Cc1nc(C)c(-c2csc(NC(=O)C3CN(c4ccc(C(F)(F)F)nn4)C3)n2)s1 [Compound I-284]
2 | 100 to 1000 nM | – | Cc1nc(C)c(-c2csc(NC(=O)C3CN(c4ccc(-c5ccccc5)nn4)C3)n2)s1 [Compound I-285]
3 | < 100 nM | – | Cc1nc(C)c(-c2csc(NC(=O)C3CN(c4ccc(C(F)(F)F)nc4)C3)n2)s1 [Compound I-286]
4 | < 100 nM | – | COC(=O)N1C[C@H](c2ccccc2)C[C@H]1C(=O)Nc1nc(-c2sc(C)nc2C)cs1 [Compound I-288]
5 | 100 to 1000 nM | – | CC(=O)N1C[C@H](c2ccccc2)C[C@H]1C(=O)Nc1nc(-c2sc(C)nc2C)cs1 [Compound I-289]
6 | < 100 nM | – | Cc1nc(CO)sc1-c1csc(NC(=O)[C@@H]2C[C@@H](c3ccccc3)CN2C(=O)C(F)(F)F)n1 [Compound I-290]
7 | 100 to 1000 nM | – | Cc1nc(C)c(-c2csc(NC(=O)[C@@H]3C[C@@H](c4ccccc4)CN3C(=O)C(C)C)n2)s1 [Compound I-291]
8 | < 100 nM | – | Cc1nc(C)c(-c2csc(NC(=O)[C@@H]3C[C@@H](c4ccccc4)CN3CC(F)(F)F)n2)s1 [Compound I-292]
9 | < 100 nM | – | Cc1nc(C)c(-c2csc(NC(=O)[C@@H]3C[C@H](Oc4ccc(Cl)cc4)CN3C(=O)OC(C)(C)C)n2)s1 [Compound I-293]
10 | 1000 to 8000 nM | – | Cc1nc(C)c(-c2csc(NC(=O)[C@@H]3C[C@@H](c4ccccc4)CN3C=[N+](C)C)n2)s1 [Compound I-294]
11 | 100 to 1000 nM | – | Cc1nc(C(C)O)sc1-c1csc(NC(=O)C2CCN(c3ccccc3)C2)n1 (stereo not shown) [Compound I-295]
12 | 1000 to 8000 nM | – | Cc1nc(C)c(-c2csc(NC(=O)c3cccc(-c4ccccc4)n3)n2)s1 [Compound I-296]
13 | < 100 nM | 22 nM | Cc1nc(CO)sc1-c1csc(NC(=O)C2CN(c3ccc(C(F)(F)F)cn3)C2)n1 [Compound I-297]
14 | 1000 to 8000 nM | – | CCNC(=O)N1C[C@H](c2ccccc2)C[C@H]1C(=O)Nc1nc(-c2sc(C)nc2C)cs1 [Compound I-300]
15 | < 100 nM | – | Cc1nc(C)c(-c2csc(NC(=O)[C@@H]3C[C@@H](c4ccccc4)CN3S(=O)(=O)C(C)C)n2)s1 [Compound I-301]
16 | < 100 nM | – | O=C(Nc1nc(-c2sc(CO)nc2CO)cs1)C1CN(c2ccc(C(F)(F)F)cc2)C1 [Compound I-302]
17 | 100 to 1000 nM | – | O=C(Nc1nc(-c2sc(CO)nc2CO)cs1)C1CN(c2ccc(C(F)(F)F)cn2)C1 [Compound I-303]
18 | 100 to 1000 nM | – | Cc1nc(CO)sc1-c1csc(NC(=O)[C@H]2C[C@@H](N(C)CC(F)(F)F)C2)n1 [Compound I-304]
19 | 100 to 1000 nM | – | Cc1nc(CO)sc1-c1csc(NC(=O)C2CN(S(=O)(=O)c3ccccc3C(F)(F)F)C2)n1 [Compound I-305]
20 | < 100 nM | – | Cc1nc(CO)sc1-c1csc(NC(=O)C2CN(S(=O)(=O)c3ccc(C(F)(F)F)cc3)C2)n1 [Compound I-306]
21 | < 100 nM | – | Cc1nc(CO)sc1-c1csc(NC(=O)C2CN(c3ncc(C(F)(F)F)cn3)C2)n1 [Compound I-307]
22 | 100 to 1000 nM | – | Cc1nc(CO)sc1-c1csc(NC(=O)C2CN(C(=O)OCC(F)(F)F)C2)n1 [Compound I-308]
23 | < 100 nM | – | Cc1nc(CO)sc1-c1csc(NC(=O)C2CN(c3ccc(C(F)(F)F)nc3)C2)n1 [Compound I-309]
24 | < 100 nM | – | Cc1nc(CO)sc1-c1csc(NC(=O)C2CN(c3cccnc3C(F)(F)F)C2)n1 [Compound I-310]

Row | IC50 [1] | IC50 (1 μmol/L 4α-PDD, Fluo4-AM, read-out: TRPV4 inhibitory activity (IC50 value)) | Structure (SMILES)
25 | < 100 nM | – | Cc1nc(CO)sc1-c1csc(NC(=O)C2CN(c3cccnc3Br)C2)n1 [Compound I-311]
26 | 100 to 1000 nM | – | Cc1nc(CO)sc1-c1csc(NC(=O)[C@@H]2C[C@@H](c3ccccc3)CN2C(=O)C(C)C)n1 [Compound I-312]
27 | < 100 nM | – | CCOC(=O)N1C[C@H](c2ccccc2)C[C@H]1C(=O)Nc1nc(-c2sc(CO)nc2C)cs1 [Compound I-313]
28 | < 100 nM | – | Cc1nc(CO)sc1-c1csc(NC(=O)[C@@H]2C[C@@H](c3ccccc3)CN2C(=O)OCC(F)(F)F)n1 [Compound I-314]
29 | < 100 nM | – | Cc1nc(CO)sc1-c1csc(NC(=O)[C@@H]2C[C@@H](c3ccccc3)CN2C(=O)OC(C)C)n1 [Compound I-315]
30 | < 100 nM | – | Cc1nc(CO)sc1-c1csc(NC(=O)[C@@H]2C[C@@H](c3ccccc3)CN2S(=O)(=O)C(C)C)n1 [Compound I-316]
31 | 1000 to 8000 nM | – | O=C(Nc1nc(-c2sc(CO)nc2CO)cs1)[C@H]1C[C@@H](NCc2ccc(C(F)(F)F)cc2)C1 [Compound I-317]
32 | < 100 nM | – | Cc1nc(CO)sc1-c1csc(NC(=O)[C@H]2C[C@@H](N(C)Cc3ccc(C(F)(F)F)cc3)C2)n1 [Compound I-318]
33 | 100 to 1000 nM | – | Cc1nc(CO)sc1-c1csc(NC(=O)[C@H]2C[C@@H](NCc3ccc(C(F)(F)F)cc3)C2)n1 [Compound I-319]
34 | < 100 nM | – | O=C(Cc1ccc(S(=O)(=O)C(F)(F)F)cc1)Nc1nc(-c2sc(CO)nc2/C=C/CO)cs1 [Compound I-320]
35 | 100 to 1000 nM | – | NC(=O)c1nc(CO)c(-c2csc(NC(=O)C3CN(Cc4ccccc4C(F)(F)F)C3)n2)s1 [Compound I-322]
36 | < 100 nM | – | COC(=O)N1C[C@H](c2ccccc2)C[C@H]1C(=O)Nc1nc(-c2sc(CO)nc2C)cs1 [Compound I-323]
37 | 100 to 1000 nM | – | NC(=O)c1nc(CO)c(-c2csc(NC(=O)C3CN(Cc4cccc(C(F)(F)F)c4)C3)n2)s1 [Compound I-324]
38 | 100 to 1000 nM | – | NC(=O)c1nc(CO)c(-c2csc(NC(=O)C3CN(Cc4ccc(C(F)(F)F)cc4)C3)n2)s1 [Compound I-325]
39 | < 100 nM | – | Cc1nc(C)c(-c2csc(NC(=O)[C@H]3C[C@H](Cl)C3)n2)s1 [Compound I-326]
40 | < 100 nM | – | O=C(Nc1nc(-c2sc(CO)nc2CO)cs1)C1CN(c2ccccc2C(F)(F)F)C1 [Compound I-327]
41 | < 100 nM | – | Cc1nc(CO)sc1-c1csc(NC(=O)[C@@H]2C[C@@H](c3ccccc3)CN2C(=O)C(C)(C)F)n1 [Compound I-328]
42 | < 100 nM | – | Cc1nc(CO)sc1-c1csc(NC(=O)C2CN(C(=O)OC(C)(C)C(F)(F)F)C2)n1 [Compound I-329]
43 | < 100 nM | – | O=C(Nc1nc(-c2sc(CO)nc2CO)cs1)C1CC(Oc2ccc(C(F)(F)F)cc2)C1 (stereo not shown) [Compound I-330]
44 | < 100 nM | – | Cc1nc(CO)sc1-c1csc(NC(=O)[C@H]2C[C@@H](OCc3ccc(Cl)cc3)C2)n1 [Compound I-331]
45 | 100 to 1000 nM | – | O=C(Nc1nc(-c2sc(CO)nc2CO)cs1)[C@H]1C[C@@H](OCc2ccc(Cl)cc2)C1 [Compound I-332]
46 | 1000 to 8000 nM | – | Cc1nc(CO)sc1-c1csc(NC(=O)C2CC(OCC3CC3)C2)n1 (stereo not shown) [Compound I-333]
47 | < 100 nM | – | N#CCc1nc(CO)sc1-c1csc(NC(=O)C2CN(c3ccc(C(F)(F)F)cc3)C2)n1 [Compound I-334]
48 | < 100 nM | – | Cc1nc(CO)sc1-c1csc(NC(=O)[C@H]2C[C@@H](OCc3ccc(C(F)(F)F)cc3)C2)n1 [Compound I-335]

Row | IC50 [1] | IC50 (1 μmol/L 4α-PDD, Fluo4-AM, read-out: TRPV4 inhibitory activity (IC50 value)) | Structure (SMILES)
49 | 100 to 1000 nM | – | O=C(Nc1nc(-c2sc(CO)nc2CO)cs1)[C@@H]1C[C@@H](c2ccccc2)CN1C(=O)OCC(F)(F)F [Compound I-336]
50 | 1000 to 8000 nM | – | O=C(Nc1nc(-c2sc(CO)nc2CO)cs1)[C@@H]1C[C@@H](c2ccccc2)CN1CC(F)(F)F [Compound I-337]
51 | 100 to 1000 nM | – | O=C(Nc1nc(-c2sc(CO)nc2CO)cs1)[C@@H]1C[C@@H](c2ccccc2)CN1S(=O)(=O)C(F)(F)F [Compound I-338]
52 | 1000 to 8000 nM | – | O=C(Nc1nc(-c2sc(CO)nc2CO)cs1)C1CC(OCC2CC2)C1 (stereo not shown) [Compound I-339]
53 | 100 to 1000 nM | – | NCc1nc(CO)sc1-c1csc(NC(=O)C2CN(c3ccc(C(F)(F)F)cc3)C2)n1 [Compound I-340]
54 | < 100 nM | – | CC(C)c1ccc(N2CC(C(=O)Nc3nc(-c4sc(CO)nc4CO)cs3)C2)cc1 [Compound I-341]
55 | 100 to 1000 nM | – | O=C(Nc1nc(-c2sc(CO)nc2CO)cs1)C1CN(c2ccccc2Cl)C1 [Compound I-342]
56 | < 100 nM | – | O=C(Nc1nc(-c2sc(CO)nc2CO)cs1)C1CN(c2ccc(Cl)cc2)C1 [Compound I-343]
57 | 100 to 1000 nM | – | CC(C)OC(=O)N1C[C@H](c2ccccc2)C[C@H]1C(=O)Nc1nc(-c2sc(CO)nc2CO)cs1 [Compound I-344]
58 | < 100 nM | – | NC(=O)NCc1nc(CO)sc1-c1csc(NC(=O)C2CN(c3ccc(C(F)(F)F)cc3)C2)n1 [Compound I-345]
59 | < 100 nM | – | Cc1nc(CO)sc1-c1csc(NC(=O)[C@H]2C[C@@H](OCc3ccccc3C(F)(F)F)C2)n1 [Compound I-346]
60 | 100 to 1000 nM | – | O=C(Nc1nc(-c2sc(CO)nc2CO)cs1)[C@H]1C[C@@H](OCc2ccccc2C(F)(F)F)C1 [Compound I-347]
61 | < 100 nM | – | O=C(Nc1nc(-c2sc(CO)nc2CCCO)cs1)C1CN(c2ccc(C(F)(F)F)cc2)C1 [Compound I-348]
62 | 100 to 1000 nM | – | CC(C)(F)C(=O)N1C[C@H](c2ccccc2)C[C@H]1C(=O)Nc1nc(-c2sc(CO)nc2CO)cs1 [Compound I-349]
63 | < 100 nM | – | CC(C)OC(=O)NCc1nc(CO)sc1-c1csc(NC(=O)C2CN(c3ccc(C(F)(F)F)cc3)C2)n1 [Compound I-350]
64 | 1000 to 8000 nM | – | O=C(O)CCc1nc(CO)sc1-c1csc(NC(=O)C2CN(c3ccc(C(F)(F)F)cc3)C2)n1 [Compound I-351]
65 | < 100 nM | – | O=C(Nc1nc(-c2sc(CO)nc2CCCN2CCOCC2)cs1)C1CN(c2ccc(C(F)(F)F)cc2)C1 [Compound I-352]
66 | < 100 nM | – | CC(=O)NCc1nc(CO)sc1-c1csc(NC(=O)C2CN(c3ccc(C(F)(F)F)cc3)C2)n1 [Compound I-353]
67 | < 100 nM | – | Cc1nc(C)c(-c2csc(NC(=O)[C@H]3C[C@@H](OCc4ccc(C(F)(F)F)cc4)C3)n2)s1 [Compound I-354]
68 | 100 to 1000 nM | – | Cc1nc(CO)sc1-c1csc(NC(=O)[C@H]2C[C@@H](C(F)F)C2)n1 [Compound I-355]
69 | 100 to 1000 nM | – | Cc1nc(CO)sc1-c1csc(NC(=O)[C@H]2C[C@@H](OCC(F)(F)F)C2)n1 [Compound I-356]
70 | < 100 nM | – | Cc1nc(CO)sc1-c1csc(NC(=O)[C@H]2C[C@H](OCC(F)(F)F)C2)n1 [Compound I-357]
71 | 100 to 1000 nM | – | NC(=O)Cc1nc(CO)sc1-c1csc(NC(=O)Cc2ccc(S(=O)(=O)C(F)(F)F)cc2)n1 [Compound I-358]
72 | < 100 nM | – | N#CCc1nc(CO)sc1-c1csc(NC(=O)Cc2ccc(S(=O)(=O)C(F)(F)F)cc2)n1 [Compound I-359]

Source: patent US20170066759A1, “AROMATIC 5-MEMBERED HETEROCYCLIC DERIVATIVE HAVING TRPV4-INHIBITING ACTIVITY” (Shionogi & Co., Ltd., priority 2012, published 2017)
